Patent publication US20220257752A1, “NEW USE OF CYCLIC DINUCLEOTIDES” (priority 2019, published 2022)

B1: OVA: ovalbumin antigen (EndoGrade, Hyglos) given without adjuvant (protein, UniProt P01012 2-386, looked up)
Ovalbumin: GSIGAASMEFCFDVFKELKVHHANENIFYCPIAIMSALAMVYLGAKDSTRTQINKVVRFDKLPGFGDSIEAQCGTSVNVHSSLRDILNQITKPNDVYSFSLASRLYAEERYPILPEYLQCVKELYRGGLEPINFQTAADQARELINSWVESQTNGIIRNVLQPSSVDSQTAMVLVNAIVFKGLWEKAFKDEDTQAMPFRVTEQESKPVQMMYQIGLFRVASMASEKMKILELPFASGTMSMLVLLPDEVSGLEQLESIINFEKLTEWTSSNVMEERKIKVYLPRMKMEEKYNLTSVLMAMGITDVFSSSANLSGISSAESLKISQAVHAAHAEINEAGREVVGSAEAGVDAASVSEEFRADHPFLFCIKHIATNAVLFFGRCVSP

How the values were obtained:
[1] = tested on: human adult peripheral blood; assay: In vitro assay using human adult blood: cytokines in supernatant (multiplex array, IL-1β ELISA); format: cell-based
Excerpt: (§1) Adult peripheral blood for controls was collected from healthy volunteers. Cord blood was obtained by needle puncture of the umbilical cord vein right after delivery of healthy newborn donors at the Women's Clinic (Braunschweig Central Hospital). Signed informed consent from parents was obtained, ensuring that no ulterior modification of the genetic material contained or therapeutic use was involved in our study. Citrate anti-coagulated cord blood bags (Macopharma, France) were stored at room temperature before the in vitro assays.
(§2) Adult or cord blood was mixed 1:1 with 37° C. warm RPMI 1640 medium (Gibco) and incubated with adjuvants and controls according to previously described method (Dowling, D. J., et. al., 2013, PLoS One 8 (3):e58164.). Briefly, 20 μl of the adjuvants 10× were added to 180 μl of diluted blood in quadruplicates (in a 96 U shape well plate), and incubated at 37° C., 5% CO2 for 6 h. Supernatant fluids were assayed by flow cytometry in multiplex arrays (Biolegend) or in an ELISA reader for IL-1β (eBioscience).
(§3) One of the well-established methods to assess adjuvant immunogenicity in human neonates is the use of cord blood as a surrogate (Dowling, D. J., et. al., 2013, PLoS One 8 (3):e58164. doi:). Therefore, to assess the secretory cytokine profile elicited by CDA in neonates, we incubated cord and adult blood in the presence of adjuvants and controls for 6 h. A bead-based multiplexed immunoassay array was employed in order to detect cytokines in the supernatant. […] Remarkably, CDA increased the secretion of Th1 cytokines, which are important to counteract the Th2 bias present at birth (Debock, I., et. al., 2013, J Immunol 191 (3):1231-9. doi: 10.4049/jimmunol.1203288).

OVA-specific IgG = format: in vivo, mice; conditions: versus OVA alone, PBS and R848
human cord blood = assay: In vitro assay using human cord blood: cytokines in supernatant (multiplex array, IL-1β ELISA); format: cell-based
Excerpt: as §1, §2, §3

[2] = tested on: H1N1 PR8 influenza A/WSN/33 (WSN)-OVA(I) strain; format: in vivo, mice
[3] = tested on: H1N1 influenza A/WSN/33 (WSN)-OVA(I) strain; format: in vivo, mice; conditions: mouse, in vivo

Row | Molecule | IL-6, IL-21 and IL-10 (Tfh profile cytokines) concentrations ([1]; 6 h incubation) | TNF-α and IFN-γ (Th1 cytokines) concentrations in supernatant ([1]; 6 h incubation, compared to R848 or medium) | stimulation of cytokines produced by Th2 and Th17 cells ([1]; compared to R848 treatment and control cells) | IL-9 ([1]; over the other treatments) | IL-1β (pro-inflammatory cytokine) by ELISA ([1]; with respect to R848) | OVA-specific IgG titers in sera (OVA-specific IgG) | Th17 cytokines (human cord blood; after treatment, blood type not given) | IL-9 (human cord blood; cord blood samples) | IL-6, IL-21 and IL-10 (Tfh profile cytokines) concentrations (human cord blood; cord blood, 6 h incubation) | TNF-α and IFN-γ (Th1 cytokines) concentrations in supernatant (human cord blood; cord blood, 6 h incubation, compared to R848 or medium) | stimulation of cytokines produced by Th2 and Th17 cells (human cord blood; cord blood, compared to R848 treatment and control cells) | IL-1β (pro-inflammatory cytokine) by ELISA (human cord blood; cord blood, with respect to R848) | protection conferred ([2]; mouse, in vivo) | protective CTL response against influenza virus expressing a CD8 restricted epitope ([2]; mouse, in vivo) | differences in protection during the 48 h of maximal weight loss ([2]; versus the other adjuvants and controls, unpaired t test p≤0.05) | body weight over 14 days after challenge [3] | deaths after challenge ([2]; mouse, in vivo)
1 | Nc1ncnc2c1ncn2[C@@H]1O[C@@H]2COP(=O)(O)O[C@H]3[C@@H](O)[C@H](n4cnc5c(N)ncnc54)O[C@@H]3COP(=O)(O)O[C@H]2[C@H]1O [CDA, cyclic bis(3′-5′)diadenylic acid] | Slightly similar results | differences were not observed | more modest | difference was accentuated | slightly decreased | higher titers | particularly decreased | slightly decreased | higher concentrations | higher concentrations | more modest | slightly decreased | significantly higher | able to promote a protective CTL response | significant |  | 
2 | CCOCc1nc2c(N)nc3ccccc3c2n1CC(C)(C)O [R848, reference compound] |  |  |  |  |  |  |  |  |  |  |  |  |  |  |  | lost weight | 
3 | B1 |  |  |  |  |  |  |  |  |  |  |  |  |  |  |  | lost weight | no deaths
